{"source": "patent US11045472B2", "about": "“Quinazoline-pyridine derivatives for the treatment of cancer-related disorders” (ARCUS BIOSCIENCES, INC., priority 2017, dated 2021)", "key": {"Human A2BR": {"target": "T1, Human A2BR (Homo sapiens, UniProt P29275)", "T1 sequence (P29275 1-332)": "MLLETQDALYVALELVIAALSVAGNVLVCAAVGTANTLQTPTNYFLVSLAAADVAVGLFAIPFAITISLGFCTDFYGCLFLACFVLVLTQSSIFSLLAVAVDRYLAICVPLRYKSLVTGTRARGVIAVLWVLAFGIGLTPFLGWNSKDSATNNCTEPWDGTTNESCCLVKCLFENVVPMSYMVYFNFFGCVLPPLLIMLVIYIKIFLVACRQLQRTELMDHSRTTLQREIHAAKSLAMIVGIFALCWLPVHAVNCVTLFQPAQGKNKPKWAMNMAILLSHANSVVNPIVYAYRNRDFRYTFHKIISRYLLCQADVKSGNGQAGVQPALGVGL", "assay": "Human 2B Adenosine Receptor CHO-K1 cAMP functional assay", "assay_type": "cell-based", "details": "cAMP antagonist functional assay, CHO-K1 cells stably expressing Human A2BR, NECA stimulation; read-out: Potency: A2BR KB", "procedure": "Measurement of the Adenosine Receptor Activity of Compounds Using a Human 2B Adenosine Receptor CHO-K1 cAMP Functional Assay\nCHO-K1 cells stably expressing Human Adenosine 2B Receptor (A2BR: Cat. No. M000329, GenScript) were purchased from GenScript Inc., Piscataway, N.J. 08854, USA.\nThe cAMP antagonist functional assay (Perkin Elmer) was performed on CHO-K1 cells stably expressing Human A2BR. 1×10^6 cells were seeded in T75 flasks and cultured at 37° C. and 5% CO2 overnight. 2,000-4,000 cells/well of stably-expressed A2bR CHO-K1 cells were then seeded to a white 384-well Opti plate followed by compound 1 incubation at various concentrations (ranging from 1 μM to 0 μM) at 37° C. for 1 hour.\n(§1) A 1:2 serial dilution of NECA (Sigma Aldrich) from 1 μM to 0 μM was added to the cell stimulation mixture and incubated for 30 min at 37° C. After 30 min incubation, 5 μL of Ulight-anti-cAMP (1:150 dilution with conjugate and lysis buffer provided by Perkin Elmer) and 5 μL of Eu-cAMP tracer (1:50 dilution with conjugate and lysis buffer provided by Perkin Elmer) was added the cells and incubated for an hour. FRET signal was detected with an Envision multilabel plate reader (Perkin Elmer) loaded with 615 nm […] filters and 665 nm emission filters.\n(§2) Data analysis was performed using on GraphPad Prism (version 7.02) to determine the KB of the test compounds."}, "Human A2AR": {"target": "T2, Human A2AR (Homo sapiens, UniProt P29274)", "T2 construct": "expressed in transfected cells; host or cells: CHO-T-REx cells (inducible expression)", "T2 sequence (P29274 whole entry)": "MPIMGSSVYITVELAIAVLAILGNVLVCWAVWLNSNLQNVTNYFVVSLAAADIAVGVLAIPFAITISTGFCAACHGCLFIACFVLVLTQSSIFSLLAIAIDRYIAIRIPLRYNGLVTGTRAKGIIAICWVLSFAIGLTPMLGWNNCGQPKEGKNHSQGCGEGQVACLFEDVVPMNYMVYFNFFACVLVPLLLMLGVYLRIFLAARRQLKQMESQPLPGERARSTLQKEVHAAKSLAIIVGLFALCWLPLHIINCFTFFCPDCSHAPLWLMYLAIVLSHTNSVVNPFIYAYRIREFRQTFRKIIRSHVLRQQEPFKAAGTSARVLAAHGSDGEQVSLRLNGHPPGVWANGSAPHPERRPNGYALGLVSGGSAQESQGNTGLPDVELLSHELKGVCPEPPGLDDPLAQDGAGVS", "assay": "human 2A Adenosine Receptor (A2aR) CHO-TREx cAMP functional assay", "assay_type": "cell-based", "details": "cAMP antagonist functional assay, CHO-T-REx cells expressing Human A2AR, NECA stimulation; read-out: Potency: A2AR KB", "procedure": "Measurement of the Adenosine Receptor Activity of Compounds using a human 2A Adenosine Receptor (A2aR) CHO-TREx cAMP Functional Assay\nThe cAMP antagonist functional assay (Perkin Elmer) was performed on CHO-T-REx cells induced to express Human A2AR. Cells were seeded to a white 384-well Opti plate at a density of 1,000 to 2,500 cells per well followed by incubation with various concentrations of compound (ranging from 1 μM to 0 μM) at 37° C. for 1 hour.\nas §1, §2"}}, "data": [{"smiles": "COc1cccc2c(-c3cn(Cc4cccc([C@](C)(O)C(F)(F)F)n4)nn3)nc(N)nc12", "values": [{"measurement": "Kb", "setting": "Human A2BR", "result": "< 0.1", "unit": "µM"}, {"measurement": "Kb", "setting": "Human A2AR", "result": "< 0.1", "unit": "µM"}]}, {"smiles": "COc1ccc2c(-c3cn(Cc4cccc(C(C)(C)O)n4)nn3)nc(N)nc2c1", "values": [{"measurement": "Kb", "setting": "Human A2BR", "result": "< 0.1", "unit": "µM"}, {"measurement": "Kb", "setting": "Human A2AR", "result": "< 0.1", "unit": "µM"}]}, {"smiles": "COc1cccc2c(-c3cn(Cc4cccc(N5CCCC5=O)n4)nn3)nc(N)nc12", "values": [{"measurement": "Kb", "setting": "Human A2BR", "result": "< 0.1", "unit": "µM"}, {"measurement": "Kb", "setting": "Human A2AR", "result": "< 0.1", "unit": "µM"}]}, {"smiles": "Nc1nc(-c2cn(Cc3cccc(C4(O)COC4)n3)nn2)c2cccc(F)c2n1", "values": [{"measurement": "Kb", "setting": "Human A2BR", "result": "0.1 to 1", "unit": "µM"}, {"measurement": "Kb", "setting": "Human A2AR", "result": "< 0.1", "unit": "µM"}]}, {"smiles": "COc1cccc2c(-c3cn(Cc4cccc(C5(O)COC5)n4)nn3)nc(N)nc12", "values": [{"measurement": "Kb", "setting": "Human A2BR", "result": "< 0.1", "unit": "µM"}, {"measurement": "Kb", "setting": "Human A2AR", "result": "< 0.1", "unit": "µM"}]}, {"smiles": "COc1cccc2c(-c3cn(Cc4cccc(C(C)(C)O)n4)nn3)nc(NC(C)C)nc12", "values": [{"measurement": "Kb", "setting": "Human A2BR", "result": "< 0.1", "unit": "µM"}, {"measurement": "Kb", "setting": "Human A2AR", "result": "< 0.1", "unit": "µM"}]}, {"smiles": "COc1cccc2c(-c3cnn(Cc4cccc(C5(O)CCC5)n4)c3)nc(N)nc12", "values": [{"measurement": "Kb", "setting": "Human A2BR", "result": "< 0.1", "unit": "µM"}, {"measurement": "Kb", "setting": "Human A2AR", "result": "< 0.1", "unit": "µM"}]}, {"smiles": "COc1cccc2c(-c3cn(Cc4cccc(-c5ccc(C(=O)O)cc5)n4)nn3)nc(N)nc12", "values": [{"measurement": "Kb", "setting": "Human A2BR", "result": "< 0.1", "unit": "µM"}, {"measurement": "Kb", "setting": "Human A2AR", "result": "< 0.1", "unit": "µM"}]}, {"smiles": "COc1cccc2c(-c3cn(Cc4cccc(C5(O)CCOCC5)n4)nn3)nc(N)nc12", "values": [{"measurement": "Kb", "setting": "Human A2BR", "result": "< 0.1", "unit": "µM"}, {"measurement": "Kb", "setting": "Human A2AR", "result": "< 0.1", "unit": "µM"}]}, {"smiles": "CCOc1cccc2c(-c3cn(Cc4cccc(C(C)(C)O)n4)nn3)nc(N)nc12", "values": [{"measurement": "Kb", "setting": "Human A2BR", "result": "0.1 to 1", "unit": "µM"}, {"measurement": "Kb", "setting": "Human A2AR", "result": "< 0.1", "unit": "µM"}]}, {"smiles": "COc1cccc2c(-c3cn(Cc4cccc(C(C)(C)CO)n4)nn3)nc(N)nc12", "values": [{"measurement": "Kb", "setting": "Human A2BR", "result": "< 0.1", "unit": "µM"}, {"measurement": "Kb", "setting": "Human A2AR", "result": "< 0.1", "unit": "µM"}]}, {"smiles": "COc1cccc2c(-c3cn(Cc4cccc(COC[C@H]5CCCO5)n4)nn3)nc(N)nc12", "values": [{"measurement": "Kb", "setting": "Human A2BR", "result": "< 0.1", "unit": "µM"}, {"measurement": "Kb", "setting": "Human A2AR", "result": "< 0.1", "unit": "µM"}]}, {"smiles": "CCOC(=O)N1CCC(c2cccc(Cn3cc(-c4nc(N)nc5c(OC)cccc45)nn3)n2)CC1", "values": [{"measurement": "Kb", "setting": "Human A2BR", "result": "< 0.1", "unit": "µM"}, {"measurement": "Kb", "setting": "Human A2AR", "result": "< 0.1", "unit": "µM"}]}, {"smiles": "COc1cccc2c(-c3cn(Cc4cccc([C@@](C)(O)C(F)(F)F)n4)nn3)nc(N)nc12", "values": [{"measurement": "Kb", "setting": "Human A2BR", "result": "< 0.1", "unit": "µM"}, {"measurement": "Kb", "setting": "Human A2AR", "result": "< 0.1", "unit": "µM"}]}, {"smiles": "COc1cccc2c(-c3cn(Cc4cccc(C(C)(O)C(F)(F)F)n4)nn3)nc(N)nc12", "note": "(stereo not drawn)", "values": [{"measurement": "Kb", "setting": "Human A2BR", "result": "< 0.1", "unit": "µM"}, {"measurement": "Kb", "setting": "Human A2AR", "result": "< 0.1", "unit": "µM"}]}, {"smiles": "COc1cccc2c(-c3cn(Cc4cccc(N5CCC(O)C5)n4)nn3)nc(N)nc12", "note": "(stereo not drawn)", "values": [{"measurement": "Kb", "setting": "Human A2BR", "result": "< 0.1", "unit": "µM"}, {"measurement": "Kb", "setting": "Human A2AR", "result": "< 0.1", "unit": "µM"}]}, {"smiles": "COc1cccc2c(-c3cn(Cc4cccc(C(C)(C)O)n4)nn3)nc(N[C@H]3CCOC3)nc12", "values": [{"measurement": "Kb", "setting": "Human A2BR", "result": "< 0.1", "unit": "µM"}, {"measurement": "Kb", "setting": "Human A2AR", "result": "< 0.1", "unit": "µM"}]}, {"smiles": "COc1cccc2c(-c3cn(Cc4cccc(C(C)(C)O)n4)nn3)nc(NC3CC3)nc12", "values": [{"measurement": "Kb", "setting": "Human A2BR", "result": "< 0.1", "unit": "µM"}, {"measurement": "Kb", "setting": "Human A2AR", "result": "< 0.1", "unit": "µM"}]}, {"smiles": "CC(C)(O)c1cccc(Cn2cc(-c3nc(N)nc4c(F)c(F)ccc34)nn2)n1", "values": [{"measurement": "Kb", "setting": "Human A2BR", "result": "< 0.1", "unit": "µM"}, {"measurement": "Kb", "setting": "Human A2AR", "result": "< 0.1", "unit": "µM"}]}, {"smiles": "COc1cccc2c(-c3cn(Cc4cccc(-c5cccc(C(=O)O)c5)n4)nn3)nc(N)nc12", "values": [{"measurement": "Kb", "setting": "Human A2BR", "result": "< 0.1", "unit": "µM"}, {"measurement": "Kb", "setting": "Human A2AR", "result": "< 0.1", "unit": "µM"}]}, {"smiles": "COCCOCc1cccc(Cn2cc(-c3nc(N)nc4c(Cl)cccc34)nn2)n1", "values": [{"measurement": "Kb", "setting": "Human A2BR", "result": "< 0.1", "unit": "µM"}, {"measurement": "Kb", "setting": "Human A2AR", "result": "< 0.1", "unit": "µM"}]}, {"smiles": "COc1cccc2c(-c3cn(Cc4cccc(-c5ccccc5C(=O)O)n4)nn3)nc(N)nc12", "values": [{"measurement": "Kb", "setting": "Human A2BR", "result": "0.1 to 1", "unit": "µM"}, {"measurement": "Kb", "setting": "Human A2AR", "result": "< 0.1", "unit": "µM"}]}, {"smiles": "COc1c(F)ccc2c(-c3cn(Cc4cccc(C5(O)COC5)n4)nn3)nc(N)nc12", "values": [{"measurement": "Kb", "setting": "Human A2BR", "result": "< 0.1", "unit": "µM"}, {"measurement": "Kb", "setting": "Human A2AR", "result": "< 0.1", "unit": "µM"}]}, {"smiles": "COc1c(F)ccc2c(-c3cn(Cc4cccc(C(C)(C)CO)n4)nn3)nc(N)nc12", "values": [{"measurement": "Kb", "setting": "Human A2BR", "result": "< 0.1", "unit": "µM"}, {"measurement": "Kb", "setting": "Human A2AR", "result": "< 0.1", "unit": "µM"}]}, {"smiles": "CC(C)(O)c1cccc(Cn2cc(-c3nc(N)nc4cc(C#N)ccc34)nn2)n1", "values": [{"measurement": "Kb", "setting": "Human A2BR", "result": "< 0.1", "unit": "µM"}, {"measurement": "Kb", "setting": "Human A2AR", "result": "< 0.1", "unit": "µM"}]}, {"smiles": "CC(C)(CO)c1cccc(Cn2cc(-c3nc(N)nc4c(F)cccc34)nn2)n1", "values": [{"measurement": "Kb", "setting": "Human A2BR", "result": "< 0.1", "unit": "µM"}, {"measurement": "Kb", "setting": "Human A2AR", "result": "< 0.1", "unit": "µM"}]}, {"smiles": "COc1cc(F)cc2c(-c3cn(Cc4cccc(C(C)(C)O)n4)nn3)nc(N)nc12", "values": [{"measurement": "Kb", "setting": "Human A2BR", "result": "< 0.1", "unit": "µM"}, {"measurement": "Kb", "setting": "Human A2AR", "result": "< 0.1", "unit": "µM"}]}]}
